From US8012486B2, “Composition for treating atopic dermatitis comprising hirsutenone as an active ingredient” (Chung-Ang University Industry Academic Cooperation …, priority 2009, dated 2011)

Legend:
Assay type in all cases: in vivo, mouse
[1] = tested on: IL-4; test: Measurement of IL-4 expression level by ELISA; conditions: NC/Nga mice, injection or skin application for 4 weeks, serum and splenocyte, vs negative control
Protocol: (§1) Serum was prepared from blood of main artery. Lymphocytes extracted from spleen were cultured. Briefly, extracted spleen was homogenized, filtered through mesh and single cells was isolated. Red blood cells were lysed in RBC lysis buffer and the supernatant was removed by centrifugation. 1×10^6 cells were cultured in 24-well plate containing RPMI media (1 ml). The experiments were performed in media containing cells cultured for 3 days.
(§2) NC/Nga mice in which atopic dermatitis had been induced were treated with hirsutenone through an injection or skin application for 4 weeks. Blood and spleen were collected from mice and interleukin (IL)-4, IL-5, IL-10 and IL-13 expression level in serum and splenocyte were measured using ELISA. IL-4, IL-5 and IL-13 expression detected in groups of hirsutenone being injected or skin applied was much lower than those of negative control (FIG. 9a, FIG. 9b and FIG. 9c).

[2] = tested on: IL-13; test: Measurement of IL-13 expression level by ELISA; conditions: NC/Nga mice, injection or skin application for 4 weeks, serum and splenocyte, vs negative control
Protocol: as §1, §2

[3] = tested on: IL-5; test: Measurement of IL-5 expression level by ELISA; conditions: NC/Nga mice, injection or skin application for 4 weeks, serum and splenocyte, vs negative control
Protocol: as §1, §2

[4] = tested on: iNOS; test: Measurement of iNOS expression using real-time PCR; conditions: NC/Nga mice, injection or skin application for 4 weeks, epidermal cells
Protocol: (§3) The primers used in Real-time PCR are as follows.
(§4) Total RNA was extracted according to the following steps. Tissue was treated with 1 ml TRIZol reagent and mixed with 200 μl chloroform. After centrifugation at 12,000 rpm for 15 min at 4° C., the supernatant was transferred into a new tube and mixed with ½ vol. of isopropanol. The mixture was again centrifuged at 12,000 rpm for 15 min at 4° C. The supernatant was discarded and total RNA was dissolved in DEPC-water.
(§5) cDNA was prepared according to the following steps. The isolated total RNA was dissolved in 30 μl DEPC-DW and reverse transcription using 3 μg of total RNA as a template was performed in a reaction mixture (20 μl) containing 1 μl of reverse transcriptase, 2 μl of 10× buffer, 2 μl of 10 mM dNTP (dNTP mix), 1 μl of oligo dT primer, 0.5 μl of RNase inhibitor and 4 μl of 25 mM MgCl2.
(§6) Each 2 μl of cDNA prepared was amplified using PCR. PCR reaction was performed by 45 cycles of 1 min at 59° C. and 1 min at 94° C. Finally, the mixtures were incubated at 72° C. for 1 min for extension.
(§7) NC/Nga mice in which atopic dermatitis had been induced were treated with hirsutenone through an injection or skin application for 4 weeks and then mice epidermal cells were collected. To investigate whether hirsutenone has a regulatory activity on immune responses, the expression levels of COX-2 and iNOS were detected using real-time PCR. […]

[5] = tested on: mice in which atopic dermatitis had been induced; test: Naked-eye observation of atopic dermatitis in animal model
Source text: To examine treatment efficacy of hirsutenone on atopic dermatitis, the present inventors utilized an experimental animal model in which atopic dermatitis was induced by attachment of mite patch to the skin. Briefly, the patch containing a mite-derived ingredient as a human atopic dermatitis-inducing agent was applied to 5-old-week mice. The hairs of their back were partially removed and mite patch was attached. At 2-week post-application, skin damage equivalent to atopic dermatitis was observed. Mite patch was detached at 18 weeks.
In addition to NC/Nga mouse, BABL/c mouse was used as an animal model.
To examine treatment efficacy of hirsutenone on atopic dermatitis, mice in which atopic dermatitis had been induced were treated with hirsutenone through an injection or skin application for 4 weeks. Then, external skin morphology was estimated by naked-eye observation so as to determine whether a symptom of atopic dermatitis was relieved. Each group injected or applied with hirsutenone was compared to a negative control group into which hirsutenone was not administered, resulting in the improvement of a symptom of atopic dermatitis. […] FIG. 5d represents a positive control treated with dexamethasone. […] FIG. 5g represents the result of administration of plancol as positive control.
FIG. 6d represents a positive control treated with dexamethasone. […] FIG. 6g represents the result of administration of plancol as positive control.

[6] = tested on: COX-2; test: Measurement of COX-2 expression level using western blotting; conditions: NC/Nga mice, injection or skin application for 4 weeks, epidermal cells
Protocol: (§8) Skin tissue containing epidermal cells was lysed and centrifuged using a centrifuge. The supernatant was electrophoresized on 15% SDS-PAGE (sodium dodecyl sulfate polyacrylamide gel electrophoresis). For analysis of COX-2 and iNOS, proteins separated on gel electrophoresis were transferred into a nitrocellulose membrane and sequentially incubated with a primary antibody (1:1000 in BSA, rabbit polyclonal anti-COX-2 antibody, rabbit polyclonal iNOS antibody; Chemicon, Calif., USA) and a secondary antibody (1:2000 in BSA, anti-goat IgG, anti-rabbit IgG; Chemicon, Calif., USA).
(§9) NC/Nga mice in which atopic dermatitis had been induced were treated with hirsutenone through an injection or skin application for 4 weeks and mice epidermal cells were collected. To investigate whether hirsutenone has a regulatory activity on immune responses, the expression levels of COX-2 and iNOS were detected using western blotting.

[7] = tested on: COX-2; test: Measurement of COX-2 expression using real-time PCR; conditions: NC/Nga mice, injection or skin application for 4 weeks, epidermal cells
Protocol: as §3, §4, §5, §6, §7

[8] = tested on: IgE; test: Measurement of IgE level by ELISA; conditions: NC/Nga mice, injection or skin application for 4 weeks, vs negative control
Protocol: as §1
NC/Nga mice in which atopic dermatitis had been induced were treated with hirsutenone through an injection or skin application for 4 weeks. Blood was collected from mice and IgE expression level was measured using ELISA.

[9] = tested on: iNOS; test: Measurement of iNOS expression level using western blotting; conditions: NC/Nga mice, injection or skin application for 4 weeks, epidermal cells
Protocol: as §8, §9

[10] = tested on: eosinophil; test: Eosinophil count in blood; conditions: NC/Nga mice, injection or skin application for 4 weeks, after vs before administration
Protocol: Mouse blood was collected into capillary tube and 30 μl of mouse whole blood was diluted 6-fold by addition of 150 μl saline. Eosinophils were counted using a Sysmex XE-2100 hematology analyzer. Slide glass smeared with peripheral blood was prepared and stained with Wright-Giemsa. Eosinophil count was carried out by differentially counting 200 leukocytes.
NC/Nga mice in which atopic dermatitis had been induced were treated with hirsutenone through an injection or skin application for 4 weeks. Blood was collected from mice before and after administration or application of hirsutenone, and then eosinophil count was measured.

Q: `O=C(/C=C/CCc1ccc(O)c(O)c1)CCc1ccc(O)c(O)c1` [hirsutenone] was tested. Which IL-4 expression level [1] did it give?
A: Its IL-4 expression level is “much lower”.

Q: What about the IL-13 expression level [2] of the same compound?
A: Its IL-13 expression level is “much lower”.

Q: And the IL-5 expression level [3]?
A: The IL-5 expression level was “much lower”.

Q: What about the “iNOS expression level (real-time PCR)” value [4] of the same compound?
A: The value was “significantly decreased”.

Q: And the “symptom of atopic dermatitis (naked-eye observation)” value (from here on “symptom of atopic dermatitis”) ([5]; BABL/c mice, 0.1% hirsutenone by injection, vs PBS negative control)?
A: Its value is “much more relieved”.

Q: What about the “symptom of atopic dermatitis” value ([5]; BABL/c mice, 1% hirsutenone by injection, vs PBS negative control) of the same compound?
A: The value was “much more relieved”.

Q: What about the “symptom of atopic dermatitis” value ([5]; BABL/c mice, 1% hirsutenone ointment applied to skin, vs composition without active ingredient) of the same compound?
A: Its value is “much more alleviated”.

Q: What about the “symptom of atopic dermatitis” value ([5]; NC/Nga mice, 0.1% hirsutenone by injection, 4 weeks, vs PBS negative control) of the same compound?
A: Its value is “much more improved”.

Q: What about the “symptom of atopic dermatitis” value ([5]; NC/Nga mice, 1% hirsutenone by injection, 4 weeks, vs PBS negative control) of the same compound?
A: Its value is “much more improved”.

Q: What about the “symptom of atopic dermatitis” value ([5]; NC/Nga mice, 1% hirsutenone ointment applied to skin, 4 weeks, vs composition without active ingredient) of the same compound?
A: The value was “much more remarkably improved”.

Q: What about the “COX-2 expression level (western blotting)” value [6] of the same compound?
A: Its value is “reduced”.

Q: And the “COX-2 expression level (real-time PCR)” value [7]?
A: Its value is “significantly decreased”.

Q: And the “IgE expression level in blood” value [8]?
A: Its value is “remarkably lower”.

Q: And the “iNOS expression level (western blotting)” value [9]?
A: The value was “reduced”.

Q: What about the “number of eosinophil in blood” value [10] of the same compound?
A: The value was “more severely reduced”.
